Reference: ChEMBL document CHEMBL1151757, “Synthesis, radiosynthesis, and biological evaluation of fluorine-18-labeled 2beta-carbo(fluoroalkoxy)-3beta-(3'-((Z)-2-haloethenyl)phenyl)nortropanes: candidate radioligands for in vivo imaging of the serotonin transporter with positron emission tomography” (J Med Chem, 2008)

Legend:
[1] = Ratio of drug uptake in pons to cerebellum in anesthetized cynomolgus monkey after 215 mins postinjection; assay type: ADME, organism-based, Macaca fascicularis; settings: in vivo
[2] = Ratio of drug uptake in pons to cerebellum in anesthetized cynomolgus monkey after 185 mins postinjection; assay type: ADME, organism-based, Macaca fascicularis; settings: in vivo
[3] = Ratio of drug uptake in pons to cerebellum in anesthetized cynomolgus monkey after 195 mins postinjection; assay type: ADME, organism-based, Macaca fascicularis; settings: in vivo, 3.25 h
[4] = Ratio of drug uptake in medulla to cerebellum in anesthetized cynomolgus monkey after 85 mins postinjection; assay type: ADME, organism-based, Macaca fascicularis; settings: in vivo
[5] = Drug uptake in anesthetized cynomolgus monkey brain frontal lobe after 45 mins postinjection; assay type: ADME, organism-based, Macaca fascicularis; settings: in vivo, 0.75 h
[6] = Drug uptake in anesthetized cynomolgus monkey brain frontal lobe after 225 mins postinjection; assay type: ADME, organism-based, Macaca fascicularis; settings: in vivo, 3.75 h
[7] = Drug uptake in anesthetized cynomolgus monkey brain frontal lobe after 235 mins postinjection; assay type: ADME, organism-based, Macaca fascicularis; settings: in vivo
[8] = Ratio of drug uptake in midbrain to cerebellum in anesthetized cynomolgus monkey after 235 mins postinjection; assay type: ADME, organism-based, Macaca fascicularis; settings: in vivo
[9] = Ratio of drug uptake in pons to cerebellum in anesthetized cynomolgus monkey after 1.5 mins postinjection; assay type: ADME, organism-based, Macaca fascicularis; settings: in vivo, 0.025 h
[10] = Ratio of drug uptake in occipital lobe to cerebellum in anesthetized cynomolgus monkey after 115 mins postinjection; assay type: ADME, organism-based, Macaca fascicularis; settings: in vivo
[11] = Ratio of drug uptake in occipital lobe to cerebellum in anesthetized cynomolgus monkey after 125 mins postinjection; assay type: ADME, organism-based, Macaca fascicularis; settings: in vivo
Putamen [12] = assay: Drug uptake in anesthetized cynomolgus monkey brain putamen after 115 mins postinjection; assay type: ADME, organism-based, Macaca fascicularis; set-up: unit not given here; settings: in vivo
Putamen [13] = assay: Drug uptake in anesthetized cynomolgus monkey brain putamen after 125 mins postinjection; assay type: ADME, organism-based, Macaca fascicularis; settings: in vivo
Putamen [14] = assay: Drug uptake in anesthetized cynomolgus monkey brain putamen after 165 mins postinjection; assay type: ADME, organism-based, Macaca fascicularis; settings: in vivo, 2.75 h
[15] = Drug uptake in awake rhesus monkey brain frontal lobe after 25 mins postinjection; assay type: ADME, organism-based, Macaca mulatta; settings: in vivo
[16] = Drug uptake in awake rhesus monkey brain frontal lobe after 105 mins postinjection; assay type: ADME, organism-based, Macaca mulatta; settings: in vivo, 1.75 h
[17] = Drug uptake in awake rhesus monkey brain medulla after 7.5 mins postinjection; assay type: ADME, organism-based, Macaca mulatta; settings: in vivo, 0.125 h
Pons [18] = assay: Drug uptake in anesthetized cynomolgus monkey brain pons after 3.5 mins postinjection; assay type: ADME, organism-based, Macaca fascicularis; settings: in vivo
Pons [19] = assay: Drug uptake in anesthetized cynomolgus monkey brain pons after 12.5 mins postinjection; assay type: ADME, organism-based, Macaca fascicularis; settings: in vivo
[20] = Drug uptake in awake rhesus monkey brain medulla after 95 mins postinjection; assay type: ADME, organism-based, Macaca mulatta; settings: in vivo
Pons [21] = assay: Drug uptake in anesthetized cynomolgus monkey brain pons after 22.5 mins postinjection; assay type: ADME, organism-based, Macaca fascicularis; settings: in vivo, 0.375 h
Medulla [22] = assay: Drug uptake in anesthetized cynomolgus monkey brain medulla after 195 mins postinjection; assay type: ADME, organism-based, Macaca fascicularis; settings: in vivo, 3.25 h
[23] = Drug uptake in awake rhesus monkey brain pons after 25 mins postinjection; assay type: ADME, organism-based, Macaca mulatta; settings: in vivo
[24] = Drug uptake in awake rhesus monkey brain pons after 65 mins postinjection; assay type: ADME, organism-based, Macaca mulatta; settings: in vivo
[25] = Drug uptake in awake rhesus monkey brain midbrain after 25 mins postinjection; assay type: ADME, organism-based, Macaca mulatta; settings: in vivo
[26] = Drug uptake in awake rhesus monkey brain midbrain after 105 mins postinjection; assay type: ADME, organism-based, Macaca mulatta; settings: in vivo, 1.75 h
Pons [27] = assay: Drug uptake in anesthetized cynomolgus monkey brain pons after 145 mins postinjection; assay type: ADME, organism-based, Macaca fascicularis; settings: in vivo
Medulla [28] = assay: Drug uptake in anesthetized cynomolgus monkey brain medulla after 18.5 mins postinjection; assay type: ADME, organism-based, Macaca fascicularis; settings: in vivo
[29] = Ratio of drug uptake in caudate to cerebellum in anesthetized cynomolgus monkey after 225 mins postinjection; assay type: ADME, organism-based, Macaca fascicularis; settings: in vivo, 3.75 h
[30] = Ratio of drug uptake in putamen to cerebellum in anesthetized cynomolgus monkey after 3.5 mins postinjection; assay type: ADME, organism-based, Macaca fascicularis; settings: in vivo
[31] = Ratio of drug uptake in putamen to cerebellum in awake rhesus monkey after 45 mins postinjection; assay type: ADME, organism-based, Macaca mulatta; settings: in vivo, 0.75 h
[32] = Ratio of drug uptake in caudate to cerebellum in awake rhesus monkey after 25 mins postinjection; assay type: ADME, organism-based, Macaca mulatta; settings: in vivo
Medulla [33] = assay: Drug uptake in anesthetized cynomolgus monkey brain medulla after 125 mins postinjection; assay type: ADME, organism-based, Macaca fascicularis; settings: in vivo
Medulla [34] = assay: Drug uptake in anesthetized cynomolgus monkey brain medulla after 155 mins postinjection; assay type: ADME, organism-based, Macaca fascicularis; settings: in vivo
[35] = Ratio of drug uptake in putamen to cerebellum in anesthetized cynomolgus monkey after 155 mins postinjection; assay type: ADME, organism-based, Macaca fascicularis; settings: in vivo
[36] = Ratio of drug uptake in midbrain to cerebellum in awake rhesus monkey after 7.5 mins postinjection; assay type: ADME, organism-based, Macaca mulatta; settings: in vivo, 0.125 h
[37] = Ratio of drug uptake in thalamus to cerebellum in awake rhesus monkey after 105 mins postinjection; assay type: ADME, organism-based, Macaca mulatta; settings: in vivo, 1.75 h
Caudate [38] = assay: Drug uptake in anesthetized cynomolgus monkey brain caudate after 0.5 mins postinjection; assay type: ADME, organism-based, Macaca fascicularis, Caudate nucleus; settings: in vivo
Caudate [39] = assay: Drug uptake in anesthetized cynomolgus monkey brain caudate after 4.5 mins postinjection; assay type: ADME, organism-based, Macaca fascicularis, Caudate nucleus; settings: in vivo, 0.075 h
Caudate [40] = assay: Drug uptake in anesthetized cynomolgus monkey brain caudate after 125 mins postinjection; assay type: ADME, organism-based, Macaca fascicularis, Caudate nucleus; settings: in vivo
Caudate [41] = assay: Drug uptake in anesthetized cynomolgus monkey brain caudate after 175 mins postinjection; assay type: ADME, organism-based, Macaca fascicularis, Caudate nucleus; settings: in vivo
[42] = Drug uptake in awake rhesus monkey brain cerebellum after 45 mins postinjection; assay type: ADME, organism-based, Macaca mulatta; settings: in vivo, 0.75 h
[43] = Ratio of drug uptake in occipital lobe to cerebellum in anesthetized cynomolgus monkey after 12.5 mins postinjection; assay type: ADME, organism-based, Macaca fascicularis; settings: in vivo
Putamen [44] = assay: Drug uptake in anesthetized cynomolgus monkey brain putamen after 45 mins postinjection; assay type: ADME, organism-based, Macaca fascicularis; set-up: unit not given here; settings: in vivo, 0.75 h
Thalamus [45] = assay: Drug uptake in anesthetized cynomolgus monkey brain thalamus after 95 mins postinjection; assay type: ADME, organism-based, Macaca fascicularis; set-up: unit not given here; settings: in vivo
Thalamus [46] = assay: Drug uptake in anesthetized cynomolgus monkey brain thalamus after 155 mins postinjection; assay type: ADME, organism-based, Macaca fascicularis; set-up: unit not given here; settings: in vivo
Thalamus [47] = assay: Drug uptake in anesthetized cynomolgus monkey brain thalamus after 175 mins postinjection; assay type: ADME, organism-based, Macaca fascicularis; set-up: unit not given here; settings: in vivo
Midbrain [48] = assay: Drug uptake in anesthetized cynomolgus monkey brain midbrain after 4.5 mins postinjection; assay type: ADME, organism-based, Macaca fascicularis; set-up: unit not given here; settings: in vivo, 0.075 h
Midbrain [49] = assay: Drug uptake in anesthetized cynomolgus monkey brain midbrain after 6.5 mins postinjection; assay type: ADME, organism-based, Macaca fascicularis; set-up: unit not given here; settings: in vivo
Midbrain [50] = assay: Drug uptake in anesthetized cynomolgus monkey brain midbrain after 65 mins postinjection; assay type: ADME, organism-based, Macaca fascicularis; set-up: unit not given here; settings: in vivo
Midbrain [51] = assay: Drug uptake in anesthetized cynomolgus monkey brain midbrain after 125 mins postinjection; assay type: ADME, organism-based, Macaca fascicularis; set-up: unit not given here; settings: in vivo
[52] = Drug uptake in anesthetized cynomolgus monkey brain occipital lobe after 9.5 mins postinjection; assay type: ADME, organism-based, Macaca fascicularis; settings: in vivo
[53] = Drug uptake in anesthetized cynomolgus monkey brain occipital lobe after 105 mins postinjection; assay type: ADME, organism-based, Macaca fascicularis; settings: in vivo, 1.75 h
[54] = Drug uptake in anesthetized cynomolgus monkey brain occipital lobe after 115 mins postinjection; assay type: ADME, organism-based, Macaca fascicularis; settings: in vivo
[55] = Drug uptake in anesthetized cynomolgus monkey brain frontal lobe after 15.5 mins postinjection; assay type: ADME, organism-based, Macaca fascicularis; settings: in vivo
Putamen [56] = assay: Drug uptake in anesthetized cynomolgus monkey brain putamen after 197.5 mins postinjection; assay type: ADME, organism-based, Macaca fascicularis; settings: in vivo
Putamen [57] = assay: Drug uptake in anesthetized cynomolgus monkey brain putamen after 207.5 mins postinjection; assay type: ADME, organism-based, Macaca fascicularis; settings: in vivo
Midbrain [58] = assay: Drug uptake in anesthetized cynomolgus monkey brain midbrain after 182.5 mins postinjection; assay type: ADME, organism-based, Macaca fascicularis; settings: in vivo
Pons [59] = assay: Drug uptake in anesthetized cynomolgus monkey brain pons after 192.5 mins postinjection; assay type: ADME, organism-based, Macaca fascicularis; settings: in vivo
Medulla [60] = assay: Drug uptake in anesthetized cynomolgus monkey brain medulla after 35 mins postinjection; assay type: ADME, organism-based, Macaca fascicularis; settings: in vivo
Medulla [61] = assay: Drug uptake in anesthetized cynomolgus monkey brain medulla after 182.5 mins postinjection; assay type: ADME, organism-based, Macaca fascicularis; settings: in vivo
[62] = Drug uptake in anesthetized cynomolgus monkey brain cerebellum after 2.5 mins postinjection; assay type: ADME, organism-based, Macaca fascicularis; settings: in vivo
[63] = Drug uptake in anesthetized cynomolgus monkey brain cerebellum after 75 mins postinjection; assay type: ADME, organism-based, Macaca fascicularis; settings: in vivo, 1.25 h
[64] = Drug uptake in anesthetized cynomolgus monkey brain cerebellum after 192.5 mins postinjection; assay type: ADME, organism-based, Macaca fascicularis; settings: in vivo
Thalamus [65] = assay: Drug uptake in anesthetized cynomolgus monkey brain thalamus after 197.5 mins postinjection; assay type: ADME, organism-based, Macaca fascicularis; settings: in vivo

## O=C(OCC[18F])C1C2CCC(CC1c1ccc(/C=C\I)cc1)N2 (stereo not drawn)
[1]
  Ratio: 2.9
[2]
  Ratio: 2.6
[3]
  Ratio: 2.6
[4]
  Ratio: 1.8
[5]
  Drug uptake: 1.95
[6]
  Drug uptake: 1.56
[7]
  Drug uptake: 1.51
[8]
  Ratio: 4.4
[9]
  Ratio: 0.6
[10]
  Ratio: 1.3
[11]
  Ratio: 1.3
Putamen [12]
  Drug uptake: 4.34
Putamen [13]
  Drug uptake: 4.34
Putamen [14]
  Drug uptake: 4.22
[15]
  Drug uptake: 2.16
[16]
  Drug uptake: 2.07
[17]
  Drug uptake: 1.51
Pons [18]
  Drug uptake: 0.67
Pons [19]
  Drug uptake: 1.88
[20]
  Drug uptake: 2.35
Pons [21]
  Drug uptake: 2.4
Medulla [22]
  Drug uptake: 3.41
[23]
  Drug uptake: 2.29
[24]
  Drug uptake: 2.49
[25]
  Drug uptake: 2.46
[26]
  Drug uptake: 3.24
Pons [27]
  Drug uptake: 3.51
Medulla [28]
  Drug uptake: 3.01
[29]
  Ratio: 2.5
[30]
  Ratio: 1
[31]
  Ratio: 1.6
[32]
  Ratio: 1.3
Medulla [33]
  Drug uptake: 3.81
Medulla [34]
  Drug uptake: 3.73
[35]
  Ratio: 2.8
[36]
  Ratio: 1
[37]
  Ratio: 2.8
Caudate [38]
  Drug uptake: 0
Caudate [39]
  Drug uptake: 0.78
Caudate [40]
  Drug uptake: 3.09
Caudate [41]
  Drug uptake: 3
[42]
  Drug uptake: 1.93
[43]
  Ratio: 0.8
Putamen [44]
  Drug uptake: 3.8
Thalamus [45]
  Drug uptake: 4.15
Thalamus [46]
  Drug uptake: 3.97
Thalamus [47]
  Drug uptake: 3.78
Midbrain [48]
  Drug uptake: 1.23
Midbrain [49]
  Drug uptake: 1.74
Midbrain [50]
  Drug uptake: 4.13
Midbrain [51]
  Drug uptake: 4.62

## O=C(OCCC[18F])C1C2CCC(CC1c1cccc(/C=C\Br)c1)N2 (stereo not drawn)
[4]
  Ratio: 1.4
[52]
  Drug uptake: 3.77
[53]
  Drug uptake: 3.91
[54]
  Drug uptake: 3.72
[55]
  Drug uptake: 3.38
[5]
  Drug uptake: 3.72
[6]
  Drug uptake: 1.97
[7]
  Drug uptake: 2.01
[8]
  Ratio: 2.3
[9]
  Ratio: 0.8
[10]
  Ratio: 1.1
Putamen [12]
  Drug uptake: 5.03
Putamen [13]
  Drug uptake: 4.82
Putamen [14]
  Drug uptake: 4.31
Putamen [56]
  Drug uptake: 3.78
Putamen [57]
  Drug uptake: 3.65
Midbrain [58]
  Drug uptake: 4.79
Pons [18]
  Drug uptake: 1.87
Pons [19]
  Drug uptake: 4.51
Pons [21]
  Drug uptake: 4.89
Pons [27]
  Drug uptake: 4.35
Pons [59]
  Drug uptake: 3.48
Medulla [28]
  Drug uptake: 5.87
Medulla [60]
  Drug uptake: 5.92
[29]
  Ratio: 1.7
[30]
  Ratio: 0.8
Medulla [33]
  Drug uptake: 4.99
Medulla [34]
  Drug uptake: 4.48
Medulla [61]
  Drug uptake: 4.22
[35]
  Ratio: 1.7
[62]
  Drug uptake: 1.41
[63]
  Drug uptake: 4.02
[64]
  Drug uptake: 2.38
Caudate [38]
  Drug uptake: 0.01
Caudate [39]
  Drug uptake: 2.17
Caudate [40]
  Drug uptake: 4.63
Caudate [41]
  Drug uptake: 4.04
[43]
  Ratio: 0.7
Putamen [44]
  Drug uptake: 6.05
Thalamus [45]
  Drug uptake: 5.16
Thalamus [46]
  Drug uptake: 4.27
Thalamus [47]
  Drug uptake: 4
Thalamus [65]
  Drug uptake: 3.74
Midbrain [48]
  Drug uptake: 3.08
Midbrain [49]
  Drug uptake: 4.35
Midbrain [50]
  Drug uptake: 6.06
Midbrain [51]
  Drug uptake: 5.5
